Data published in ChEMBL document CHEMBL4196070, “Development of Piperazinediones as dual inhibitor for treatment of Alzheimer's disease” (Eur J Med Chem, 2018).

Key:
Cholinesterase = Cholinesterase (Equus caballus, UniProt P81908); test: Inhibition of equine serum BuChE using butyrylthiocholine iodide as substrate preincubated for 30 mins followed by substrate addition and measured for 20 mins at 1 min interval by Ellman's method
Acetylcholinesterase [1] = biological target: T1, Acetylcholinesterase (Electrophorus electricus, UniProt O42275); test: Inhibition of electric eel AChE using acetylthiocholine iodide as substrate preincubated for 30 mins followed by substrate addition and measured for 20 mins at 1 min interval by Ellman's method
[2] = biological target: T2, 72 kDa type IV collagenase (Homo sapiens, UniProt P08253); test: Inhibition of human MMP2 using Mca-Pro-Leu-Gly-Leu-Dpa-Ala-Arg-NH as substrate preincubated for 60 mins followed by substrate addition by fluorescence analysis
[3] = Permeability of the compound at 25 ug/ml after 18 hrs by PAMPA-BBB assay; assay type: ADME; settings: read-out: permeability
Rattus norvegicus = test: Toxicity in Wistar rat assessed as mortality at 300 mg/kg measured for 72 hrs; assay type: organism-based; settings: in vivo
[4] = Toxicity in Wistar rat measured for 72 hrs; assay type: organism-based; settings: in vivo
Mus musculus = test: Effect on locomotive behavior in Swiss albino mouse at 5 to 20 mg/kg, ip administered once daily for 7 days prior to 4 hrs of training and measured after 5 mins by Y-maze test; assay type: ADME, organism-based; settings: in vivo
Acetylcholinesterase [5] = biological target: T1, Acetylcholinesterase; test: Non-competitive inhibition of electric eel AChE using acetylthiocholine iodide as substrate preincubated for 30 mins followed by substrate addition by Dixon plot analysis
[6] = biological target: T2, 72 kDa type IV collagenase; test: Competitive inhibition of human MMP2 using Mca-Pro-Leu-Gly-Leu-Dpa-Ala-Arg-NH as substrate preincubated for 60 mins followed by substrate addition by secondary plot analysis
[7] = Neuroprotective activity against tetracycline removal-induced cytotoxicity in human MC65 cells assessed as cell viability at 70 uM after 12 hrs by MTT assay relative to control; assay type: functional; settings: MC65, 12 h, read-out: Activity

T1 sequence (O42275 whole entry): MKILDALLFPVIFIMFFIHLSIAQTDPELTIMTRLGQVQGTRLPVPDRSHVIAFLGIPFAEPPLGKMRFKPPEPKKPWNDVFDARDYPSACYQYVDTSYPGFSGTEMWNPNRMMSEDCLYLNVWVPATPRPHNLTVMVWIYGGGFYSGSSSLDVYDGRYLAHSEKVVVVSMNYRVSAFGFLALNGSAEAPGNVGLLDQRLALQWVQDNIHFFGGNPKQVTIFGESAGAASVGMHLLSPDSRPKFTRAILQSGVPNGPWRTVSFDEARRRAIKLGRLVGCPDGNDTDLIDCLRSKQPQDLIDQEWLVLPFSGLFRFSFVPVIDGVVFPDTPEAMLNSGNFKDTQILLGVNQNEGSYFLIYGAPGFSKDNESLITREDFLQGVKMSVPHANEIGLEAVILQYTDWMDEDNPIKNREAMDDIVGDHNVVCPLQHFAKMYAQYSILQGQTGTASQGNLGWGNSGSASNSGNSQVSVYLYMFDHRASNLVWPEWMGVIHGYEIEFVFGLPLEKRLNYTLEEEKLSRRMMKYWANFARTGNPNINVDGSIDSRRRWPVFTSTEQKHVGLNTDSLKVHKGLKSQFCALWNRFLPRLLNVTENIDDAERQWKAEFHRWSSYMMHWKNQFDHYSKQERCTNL
Chain of Cholinesterase (P81908 whole entry): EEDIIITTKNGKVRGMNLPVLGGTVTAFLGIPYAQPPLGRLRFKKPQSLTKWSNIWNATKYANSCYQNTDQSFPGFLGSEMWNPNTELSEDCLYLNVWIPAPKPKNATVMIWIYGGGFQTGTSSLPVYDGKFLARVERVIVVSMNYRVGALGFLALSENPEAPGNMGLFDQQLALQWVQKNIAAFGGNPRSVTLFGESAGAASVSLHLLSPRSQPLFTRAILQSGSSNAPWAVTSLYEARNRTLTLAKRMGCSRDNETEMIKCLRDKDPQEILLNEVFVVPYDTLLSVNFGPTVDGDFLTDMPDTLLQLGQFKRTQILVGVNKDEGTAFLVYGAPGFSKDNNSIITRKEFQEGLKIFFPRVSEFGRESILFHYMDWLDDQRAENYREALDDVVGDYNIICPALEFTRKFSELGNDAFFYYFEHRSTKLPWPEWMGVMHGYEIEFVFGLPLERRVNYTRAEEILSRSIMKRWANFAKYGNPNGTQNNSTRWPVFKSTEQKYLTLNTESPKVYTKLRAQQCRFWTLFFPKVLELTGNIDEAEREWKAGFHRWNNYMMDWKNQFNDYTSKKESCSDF
T2 sequence (P08253 whole entry): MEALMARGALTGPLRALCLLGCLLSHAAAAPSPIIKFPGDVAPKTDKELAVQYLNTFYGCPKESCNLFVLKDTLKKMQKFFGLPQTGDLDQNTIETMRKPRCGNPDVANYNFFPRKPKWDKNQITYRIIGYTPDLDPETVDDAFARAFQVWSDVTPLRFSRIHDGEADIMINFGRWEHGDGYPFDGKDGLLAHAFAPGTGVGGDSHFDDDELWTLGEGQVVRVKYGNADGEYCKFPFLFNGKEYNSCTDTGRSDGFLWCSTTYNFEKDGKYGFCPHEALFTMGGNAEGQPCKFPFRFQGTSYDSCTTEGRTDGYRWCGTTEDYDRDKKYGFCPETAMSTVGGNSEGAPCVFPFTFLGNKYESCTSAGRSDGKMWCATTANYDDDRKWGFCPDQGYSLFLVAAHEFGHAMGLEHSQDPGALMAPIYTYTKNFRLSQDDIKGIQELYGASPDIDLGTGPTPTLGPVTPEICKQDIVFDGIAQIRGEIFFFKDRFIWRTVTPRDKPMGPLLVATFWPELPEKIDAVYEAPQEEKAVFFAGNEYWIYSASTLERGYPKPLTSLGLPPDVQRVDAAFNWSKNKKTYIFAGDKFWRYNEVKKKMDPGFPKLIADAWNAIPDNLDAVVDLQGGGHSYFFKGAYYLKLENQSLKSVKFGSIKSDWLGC

| Structure (SMILES) | IC50 (Cholinesterase) [nM] | IC50 (Acetylcholinesterase [1]) [nM] | IC50 [2] [nM] | Papp at 18 h, 25 ug/ml [3] [×10⁻⁶ cm/s] | Activity (Rattus norvegicus) | LD50 at 72 h [4] [mg/kg] | Activity (Mus musculus) | Ki (Acetylcholinesterase [5]) [nM] | Ki [6] [nM] | viability at 70 µM [7] [%] |
| --- | --- | --- | --- | --- | --- | --- | --- | --- | --- | --- |
| O=C1CN(S(=O)(=O)c2ccc(F)cc2)C(=O)CN1S(=O)(=O)c1ccc(F)cc1 | 186 | 78.3 | 55.1 | 10.3 | – | – | – | – | – | – |
| CCCS(=O)(=O)N1CC(=O)N(S(=O)(=O)CCC)CC1=O | > 200 | > 200 | > 1000 | 0.89 | – | – | – | – | – | – |
| O=C1CN(S(=O)(=O)c2ccc(Cl)cc2)C(=O)CN1S(=O)(=O)c1ccc(Cl)cc1 | 180 | 61.6 | 49.7 | 6.43 | – | – | – | – | – | – |
| O=C1C(Cc2ccccc2)N(S(=O)(=O)c2cccc(O)c2)C(=O)C(Cc2ccccc2)N1S(=O)(=O)c1cccc(O)c1 (centres undefined) | > 200 | 69.8 | 83 | 6.36 | – | – | – | – | – | – |
| CCCCS(=O)(=O)N1CC(=O)N(S(=O)(=O)CCCC)CC1=O | > 200 | > 200 | > 1000 | 1.06 | – | – | – | – | – | – |
| O=C1C(Cc2ccccc2)N(S(=O)(=O)c2ccc(Cl)cc2)C(=O)C(Cc2ccccc2)N1S(=O)(=O)c1ccc(Cl)cc1 (centres undefined) | 158 | 32.5 | 36.8 | 12.3 | Toxic | 200 | Non-Toxic | – | – | – |
| Cc1ccc(S(=O)(=O)N2C(=O)C(c3ccccc3)N(S(=O)(=O)c3ccc(C)cc3)C(=O)C2c2ccccc2)cc1 (centres undefined) | > 200 | 76.4 | 62.9 | 11.3 | – | – | – | – | – | – |
| COc1ccc(S(=O)(=O)N2CC(=O)N(S(=O)(=O)c3ccc(OC)cc3)CC2=O)cc1 | > 200 | 91.5 | 75.3 | 6.46 | – | – | – | – | – | – |
| O=C1C(c2ccccc2)N(S(=O)(=O)c2ccc(O)cc2)C(=O)C(c2ccccc2)N1S(=O)(=O)c1ccc(O)cc1 (centres undefined) | > 200 | 84.2 | 57.2 | 6.84 | – | – | – | – | – | – |
| O=C1C(Cc2ccccc2)N(S(=O)(=O)c2ccc(O)cc2)C(=O)C(Cc2ccccc2)N1S(=O)(=O)c1ccc(O)cc1 (centres undefined) | 199 | 59.5 | 72 | 5.68 | – | – | – | – | – | – |
| O=C1C(c2ccccc2)N(S(=O)(=O)c2ccc(Cl)cc2)C(=O)C(c2ccccc2)N1S(=O)(=O)c1ccc(Cl)cc1 (centres undefined) | 161 | 28.6 | 19.6 | 7.38 | Toxic | 200 | Non-Toxic | 7 | 20 | 99.4 |
| O=C1C(Cc2ccccc2)N(S(=O)(=O)c2ccc(Br)cc2)C(=O)C(Cc2ccccc2)N1S(=O)(=O)c1ccc(Br)cc1 (centres undefined) | 181 | 57 | 38.7 | 7.29 | – | – | – | – | – | – |
| O=C1CN(S(=O)(=O)c2cccc(Cl)c2)C(=O)CN1S(=O)(=O)c1cccc(Cl)c1 | 197 | 66.7 | 58 | 8.37 | – | – | – | – | – | – |
| O=C1C(Cc2ccccc2)N(S(=O)(=O)c2ccc([N+](=O)[O-])cc2)C(=O)C(Cc2ccccc2)N1S(=O)(=O)c1ccc([N+](=O)[O-])cc1 (centres undefined) | 163 | 57.4 | 53.8 | 4.49 | – | – | – | – | – | – |
| O=C1C(c2ccccc2)N(S(=O)(=O)c2ccc(Br)cc2)C(=O)C(c2ccccc2)N1S(=O)(=O)c1ccc(Br)cc1 (centres undefined) | 183 | 50.6 | 32.7 | 8.31 | – | – | – | – | – | – |
| O=C1C(c2ccccc2)N(S(=O)(=O)c2ccc([N+](=O)[O-])cc2)C(=O)C(c2ccccc2)N1S(=O)(=O)c1ccc([N+](=O)[O-])cc1 (centres undefined) | 176 | 60.8 | 33.5 | 4.63 | – | – | – | – | – | – |
| O=C1CN(S(=O)(=O)c2ccccc2)C(=O)CN1S(=O)(=O)c1ccccc1 | > 200 | 98.5 | 82.2 | – | – | – | – | – | – | – |
| Nc1ccc(S(=O)(=O)N2CC(=O)N(S(=O)(=O)c3ccc(N)cc3)CC2=O)cc1 | > 200 | 86.3 | 53.1 | 6.1 | – | – | – | – | – | – |
| O=C1C(c2ccccc2)N(S(=O)(=O)c2cccc(Br)c2)C(=O)C(c2ccccc2)N1S(=O)(=O)c1cccc(Br)c1 (centres undefined) | 193 | 76.6 | 54.7 | 9.45 | – | – | – | – | – | – |
| Nc1ccc(S(=O)(=O)N2C(=O)C(c3ccccc3)N(S(=O)(=O)c3ccc(N)cc3)C(=O)C2c2ccccc2)cc1 (centres undefined) | > 200 | 91.3 | 50.6 | 5.53 | – | – | – | – | – | – |
| Cc1ccc(S(=O)(=O)N2CC(=O)N(S(=O)(=O)c3ccc(C)cc3)CC2=O)cc1 | > 200 | 118 | 86.7 | 10.4 | – | – | – | – | – | – |
| O=C1C(Cc2ccccc2)N(S(=O)(=O)c2cccc(Br)c2)C(=O)C(Cc2ccccc2)N1S(=O)(=O)c1cccc(Br)c1 (centres undefined) | 191 | 76.7 | 58.1 | 8.06 | – | – | – | – | – | – |
| O=C1CN(S(=O)(=O)c2ccc(Br)cc2)C(=O)CN1S(=O)(=O)c1ccc(Br)cc1 | 191 | 81.8 | 54.7 | 8.87 | – | – | – | – | – | – |
| Cc1cccc(S(=O)(=O)N2C(=O)C(c3ccccc3)N(S(=O)(=O)c3cccc(C)c3)C(=O)C2c2ccccc2)c1 (centres undefined) | > 200 | 83.9 | 73.8 | 11.8 | – | – | – | – | – | – |
| Cc1nnc2n1-c1ccc(Cl)cc1C(c1ccccc1)=NC2 [ALPRAZOLAM] | – | – | – | 4.6 to 5.4 | – | – | – | – | – | – |
| CN(C)CCCN1c2ccccc2Sc2ccc(Cl)cc21 [CHLORPROMAZINE] | – | – | – | 5.9 to 6.5 | – | – | – | – | – | – |
| NCCc1ccc(O)c(O)c1 [DOPAMINE] | – | – | – | 0.17 to 0.2 | – | – | – | – | – | – |
| CCn1cc(C(=O)O)c(=O)c2cc(F)c(N3CCNC(C)C3)c(F)c21 (centres undefined) [LOMEFLOXACIN] | – | – | – | 0.31 to 1.1 | – | – | – | – | – | – |
| CC(=O)[C@H]1CC[C@H]2[C@@H]3CCC4=CC(=O)CC[C@]4(C)[C@H]3CC[C@]12C [PROGESTERONE] | – | – | – | 9.3 to 15.8 | – | – | – | – | – | – |
